According to patent US20210221822A1, “TRICYCLIC DERIVATIVES INHIBITOR, PREPARATION METHOD, AND APPLICATIONS THEREOF” (Jiangsu Hansoh Pharmaceutical Group Co., Ltd., priority 2018, published 2021):
pIC50: −log10 of the molar value.

What was measured:
[1] = system: HCC1954 cells; test: In vivo efficacy test, HCC1954 tumor-bearing nude mice; parameters: species or system BALB/c nude mice; settings: HCC1954 xenograft, oral 10 mg/kg once/day, 21 days (Example 51: 19 days)
Method: a. HCC1954 cells were taken from the cell bank, and resuscitated in RPMI-1640 medium (RPMI-1640+10% FBS+1% SP). The resuscitated cells were placed in a cell culture flask (the cell type, date, operator's name and the like were marked on the wall of the flask), and cultured in a CO2 incubator (the temperature of the incubator was 37° C., and the CO2 concentration was 5%).
c. The cultured cells were collected and counted with the automatic cell counter. The cells were resuspended with PBS and matrigel according to the counting results to prepare a cell suspension (density: 5×10^7/mL), which was placed in an ice box for later use.
d. The test nude mice were subjected to inoculation successively (0.1 mL of cell suspension was inoculated to each mouse).
a. According to the tumor growth, the tumor was measured on 14 to 18 days after the inoculation, and the tumor size was calculated.
Tumor volume calculation: tumor volume (mm^3)=length (mm)×width (mm)×width (mm)/2
c. According to the grouping results, the test compounds were administered (administration mode: oral administration; administration dose: 10 mg/kg;
administration volume: 10 mL/kg; administration frequency: once/day; administration cycle: 21 days; vehicle: 0.5% CMC/1% Tween 80).
d. Tumor volume and body weight were measured twice a week after the administration of test compounds began.
f. […]

[2] = target: T1, PI3Kβ (Homo sapiens, UniProt P42338); test: ADP-Glo lipid kinase assay, PI3Kβ kinase activity; format: biochemical; settings: 0.4 nM enzyme, 90 min, 100 μM ATP
T1 construct: purchased Carna 11-102
Summary of the method: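 ADP-Glo luminescence measured ADP formed by PI3Kα, β, γ or δ (0.1-2 nM working solution) with PIP2:3PS (50 μM added solution) and ATP in HEPES/MgCl2/NaCl/BSA buffer, 90 to 120 min at room temperature. % inhibition was set against DMSO and no-kinase controls, and IC50 came from a four-parameter fit.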

[3] = system: PI3Kα mutant cancer cells MKN1 (E545K); test: Cell Titer-Glo proliferation inhibition, MKN1; format: cell-based; settings: Homo sapiens, MKN-1, 48 to 96 hours
Method: (§1) Experimental method: The proliferation inhibitory effect of the compounds of the examples on PI3Kα mutant cancer cell lines HCC1954, HGC-27 and MKN1 was determined by Cell Titer-Glo method. The cell lines were cultured in RPMI 1640 medium (Gibco #22400089) containing 10% FBS (Gibco #10091148) and 1% P/S (Hyclone #SV30010) at 37° C. and 5% CO2. Before the experiment, the cells were collected and counted, and then the cell density was adjusted. The cells were inoculated in a white 96-well plate (Corning #3610) at a density of 1000 to 10000 cells/well, and incubated in an incubator at 37° C., 5% CO2 overnight. The compound solution of different concentrations was added, and corresponding vehicle control was set at the same time. The cell plate was further incubated in an incubator at 37° C., 5% CO2 for 48 to 96 hours. The cell plate and its content were equilibrated to room temperature. 20 to 100 μL of Cell Titer-Glo solution (Promega #G7573) was added to each well, and the plate was shaked well and incubated at room temperature in the dark for 5 to 30 minutes. The chemiluminescence value was measured by the BioTek SynergyH1 microplate reader.
(§2) The percentage inhibition data of the well treated by the compounds of the examples was calculated through the vehicle control well on the plate {% inhibition rate=100−(test compound value/vehicle control value)×100}. The IC50 value was calculated by fitting the data of different concentrations and corresponding percentage inhibition rates to a four-parameter nonlinear logic formula with GraphPad prism.

[4] = system: PI3Kα mutant cancer cells HGC-27 (E542K); test: Cell Titer-Glo proliferation inhibition, HGC-27; format: cell-based; settings: Homo sapiens, 48 to 96 hours
Method: as §1, §2

T1 sequence (P42338 whole entry): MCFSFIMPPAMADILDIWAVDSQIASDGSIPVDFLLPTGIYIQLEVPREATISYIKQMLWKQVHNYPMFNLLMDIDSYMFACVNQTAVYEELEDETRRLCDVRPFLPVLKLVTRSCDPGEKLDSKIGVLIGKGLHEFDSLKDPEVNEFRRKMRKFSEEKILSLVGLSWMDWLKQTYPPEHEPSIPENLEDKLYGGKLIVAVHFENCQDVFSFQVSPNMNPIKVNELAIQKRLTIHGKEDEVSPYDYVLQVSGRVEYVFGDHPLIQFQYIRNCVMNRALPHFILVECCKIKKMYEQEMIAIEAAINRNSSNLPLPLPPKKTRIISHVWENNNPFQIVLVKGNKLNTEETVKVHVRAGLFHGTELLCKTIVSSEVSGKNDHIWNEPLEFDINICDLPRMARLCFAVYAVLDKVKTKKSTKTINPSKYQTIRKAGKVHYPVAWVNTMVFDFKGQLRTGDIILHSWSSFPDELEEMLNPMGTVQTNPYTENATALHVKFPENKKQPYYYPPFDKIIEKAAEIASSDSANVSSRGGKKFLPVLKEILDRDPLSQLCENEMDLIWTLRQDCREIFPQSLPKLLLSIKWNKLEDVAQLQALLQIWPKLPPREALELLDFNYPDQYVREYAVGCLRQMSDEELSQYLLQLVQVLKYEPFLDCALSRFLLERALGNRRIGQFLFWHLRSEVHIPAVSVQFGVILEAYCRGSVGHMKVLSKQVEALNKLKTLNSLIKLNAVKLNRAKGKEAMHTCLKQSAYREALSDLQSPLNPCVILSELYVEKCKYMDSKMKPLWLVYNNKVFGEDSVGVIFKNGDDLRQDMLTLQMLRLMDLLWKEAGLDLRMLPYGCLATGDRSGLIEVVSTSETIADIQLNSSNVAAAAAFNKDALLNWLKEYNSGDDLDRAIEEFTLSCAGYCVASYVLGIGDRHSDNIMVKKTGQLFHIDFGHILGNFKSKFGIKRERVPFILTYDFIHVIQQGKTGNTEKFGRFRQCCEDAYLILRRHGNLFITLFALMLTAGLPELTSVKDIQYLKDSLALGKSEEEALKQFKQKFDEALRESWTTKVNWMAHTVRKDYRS
T1 sequence (P27986 whole entry partner): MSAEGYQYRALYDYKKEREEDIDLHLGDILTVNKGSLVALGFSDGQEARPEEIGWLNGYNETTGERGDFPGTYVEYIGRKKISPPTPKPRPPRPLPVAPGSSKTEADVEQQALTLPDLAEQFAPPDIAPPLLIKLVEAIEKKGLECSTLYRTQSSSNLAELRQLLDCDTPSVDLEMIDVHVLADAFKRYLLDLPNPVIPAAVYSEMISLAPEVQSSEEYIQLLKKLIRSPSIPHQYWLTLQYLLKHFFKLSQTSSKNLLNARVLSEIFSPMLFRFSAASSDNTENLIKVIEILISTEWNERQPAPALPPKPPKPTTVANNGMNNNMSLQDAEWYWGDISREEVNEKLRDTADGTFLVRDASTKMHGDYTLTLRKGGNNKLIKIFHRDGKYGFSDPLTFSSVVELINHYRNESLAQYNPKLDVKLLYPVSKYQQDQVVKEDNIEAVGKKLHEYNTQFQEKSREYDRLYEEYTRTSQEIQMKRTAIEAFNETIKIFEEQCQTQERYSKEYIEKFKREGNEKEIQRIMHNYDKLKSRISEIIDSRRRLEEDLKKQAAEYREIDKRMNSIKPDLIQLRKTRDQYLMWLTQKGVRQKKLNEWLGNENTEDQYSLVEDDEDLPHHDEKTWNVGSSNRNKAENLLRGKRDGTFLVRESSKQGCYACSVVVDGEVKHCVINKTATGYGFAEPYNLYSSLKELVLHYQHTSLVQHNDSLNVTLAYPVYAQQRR

pIC50 [2]: 6.70
pIC50 [3]: 6.95
pIC50 [4]: 6.95
Compound: C[C@H](Nc1ccc2c(c1)OCCn1cc(N3C(=O)COC[C@H]3C(F)F)nc1-2)C(N)=O [Example 68, (S)-2-((2-((S)-3-(difluoromethyl)-5-oxomorpholino)-5,6-dihydrobenzo[f]imidazo[1,2-d][1,4]oxazepin-9-yl)amino)propanamide]
Tumor growth inhibition rate [1]: 78%
